In the supplement of paper PMC10307832:

Tests used:
Experiment in all cases: relative viability (nuclei count vs DMSO), 5 days (fraction); higher = more cells survive
Ibrutinib + Crizotinib = compound: C=CC(=O)N1CCC[C@@H](n2nc(-c3ccc(Oc4ccccc4)cc3)c3c(N)ncnc32)C1 [Ibrutinib] + C[C@@H](Oc1cc(-c2cnn(C3CCNCC3)c2)cnc1N)c1c(Cl)ccc(F)c1Cl [Crizotinib] (partner 1 µM)
How it was run: (§1)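 Lung cancer cell lines, seeded in 1536-well plates, were treated the following day by pin tool with a single drug or with five library-drug doses (not always all listed) in √10 steps on top of a fixed anchor-drug dose. Cells were fixed and nuclei stained in one step after 5 days, and nuclei were counted. Relative viability is the nuclei count for treated wells divided by that for vehicle wells, reported as medians of duplicate plates.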

Ibrutinib + Decitabine = compound: C=CC(=O)N1CCC[C@@H](n2nc(-c3ccc(Oc4ccccc4)cc3)c3c(N)ncnc32)C1 [Ibrutinib] + Nc1ncn([C@H]2C[C@H](O)[C@@H](CO)O2)c(=O)n1 [Decitabine] (partner 2 µM)
How it was run: as §1

PAC-1 + Linsitinib = compound: C=CCc1cccc(/C=N/NC(=O)CN2CCN(Cc3ccccc3)CC2)c1O [PAC-1] + C[C@]1(O)C[C@@H](c2nc(-c3ccc4ccc(-c5ccccc5)nc4c3)c3c(N)nccn32)C1 [Linsitinib] (partner 1 µM)
How it was run: as §1

PAC-1 + Tozasertib = compound: C=CCc1cccc(/C=N/NC(=O)CN2CCN(Cc3ccccc3)CC2)c1O [PAC-1] + Cc1cc(Nc2cc(N3CCN(C)CC3)nc(Sc3ccc(NC(=O)C4CC4)cc3)n2)n[nH]1 [Tozasertib] (partner 0.1 µM)
How it was run: as §1

Cell Line	relative viability (Ibrutinib + Crizotinib; first compound 0.005 µM)	relative viability (Ibrutinib + Crizotinib; first compound 0.01581 µM)	relative viability (Ibrutinib + Crizotinib; first compound 0.05 µM)	relative viability (Ibrutinib + Crizotinib; first compound 0.1581 µM)	relative viability (Ibrutinib + Crizotinib; first compound 0.5 µM)	relative viability (Ibrutinib + Decitabine; first compound 0.005 µM)	relative viability (Ibrutinib + Decitabine; first compound 0.01581 µM)	relative viability (Ibrutinib + Decitabine; first compound 0.05 µM)	relative viability (Ibrutinib + Decitabine; first compound 0.1581 µM)	relative viability (Ibrutinib + Decitabine; first compound 0.5 µM)	relative viability (PAC-1 + Linsitinib; first compound 0.02 µM)	relative viability (PAC-1 + Linsitinib; first compound 0.06325 µM)	relative viability (PAC-1 + Linsitinib; first compound 0.2 µM)	relative viability (PAC-1 + Linsitinib; first compound 2 µM)	relative viability (PAC-1 + Tozasertib; first compound 0.02 µM)	relative viability (PAC-1 + Tozasertib; first compound 0.06325 µM)	relative viability (PAC-1 + Tozasertib; first compound 0.2 µM)	relative viability (PAC-1 + Tozasertib; first compound 2 µM)
NCI-H1734	0.587	0.689	0.675	0.761	0.67	0.548	0.511	0.541	0.455	0.47	0.845	0.885	0.928	1.02	0.199	0.256	0.23	0.267
NCI-H1755	0.832		0.909	0.909	0.852	0.739	0.716	0.704	0.713	0.7	1.01	1	0.94	0.982	0.541	0.587	0.506	0.512
NCI-H1915		0.858	0.92	0.921	0.897	0.269	0.272	0.275	0.272	0.255	1.09	1.09	1.02	1.07	0.421	0.436	0.411	0.428
NCI-H1944	0.99	0.88	0.963		0.782	0.426	0.363	0.413	0.433	0.372	1.17	1.05	1.12	1.06	0.231	0.247	0.236	0.246
NCI-H1975	0.986	0.859	0.88	0.96	0.558	0.414	0.354	0.379	0.373	0.177	0.917	0.908	0.921	0.894	0.76	0.824	0.748	0.729
NCI-H1993	0.843	0.744	0.704		0.713	0.571	0.637	0.579	0.554	0.441	0.735	0.797	0.745	0.701	0.635	0.541	0.469	0.548
NCI-H2009	1.04	1.04	1.08	1.11	1.1	0.375	0.373	0.372	0.46	0.415	1.16	1.21	1.17	1.15	0.816	0.715	0.698	0.696
NCI-H2023	0.55	0.637	0.423	0.603	0.356	0.245	0.234	0.249	0.208	0.23	0.642	0.615	0.512	0.876	0.404	0.355	0.382	0.347
NCI-H2085	0.92	0.852	0.772	0.918	0.706	0.57	0.56	0.588		0.568	0.891	0.936	0.943	1.04	0.787	0.81	0.797	0.796
NCI-H2087	0.849	0.949	1.04	0.872	0.862	0.238	0.279	0.261		0.291	1.18	0.931	0.899	0.875	0.197	0.252	0.281	0.259
NCI-H2126		1	0.994	1.06	0.936	0.537	0.565	0.613	0.598	0.502	0.696	0.703	0.692	0.694	0.919	0.829	0.82	0.821
NCI-H2347	0.679	0.684	0.739	0.592	0.696	0.65	0.609	0.658	0.575	0.535	0.97	1.02	0.894	0.986	0.534	0.572	0.576	0.511
NCI-H2405		0.886	0.779	0.824	0.8	0.622	0.715			0.682	0.949	0.918	0.899	1.08	0.688	0.737	0.74	0.786
NCI-H3122	0.237	0.263	0.254	0.253	0.244	0.52	0.381	0.471	0.424	0.431	1.03	1.01	0.992	1.03	0.421	0.425	0.394	0.344
PC-3 [JPC-3]	0.988	0.907	0.975	0.987	0.6	0.707	0.762	0.707	0.837	0.542	1.04	0.965	0.948	0.97	0.883	0.859	0.842	0.857
PC-14	0.886	0.968	0.896	0.901	0.563	0.241	0.202	0.217	0.168	0.22	0.967	1.03	0.91	0.925	0.572	0.635	0.63	0.626
RERF-LC-KJ	0.865	0.742	0.825	0.889	0.815	0.599	0.654	0.561	0.693	0.728	0.904	0.818	0.861	0.887	0.467	0.483	0.45	0.511
SK-LU-1	0.869	0.741	1.04	1.1	0.859	0.592	0.664	0.626	0.571	0.617	1.17	1.06	1.04	0.716	0.314	0.332	0.341	0.294
SW 1573	0.87	0.807	0.803	0.986	0.77	0.364	0.459	0.482	0.412	0.683	0.826	0.76	0.759	0.914	0.172	0.184	0.255	0.148
UMC-11	0.538	0.598	0.596	0.681	0.57		0.588	0.452	0.596	0.789	0.997	1.03	0.996	1.04	0.204	0.202	0.212	0.187
